# Measurements: patent publication US20080004266A1, “Method for treating proliferative disorders associated with protooncogene products” (priority 2006, published 2008)
# Experiments:
# [1] = tested on: human tumor cell line Kasumi-1; experiment: Kasumi-1 (c-Kit N822K) SCID mouse xenograft model; format: in vivo, human (xenograft in SCID mouse); conditions: for % T/C value: SCID mice
# From the text: The human acute myelogenous leukemia cell line, Kasumi-1 (ATCC #CRL-2724), was obtained from the American Type Culture Collection (ATCC; Manassas, Va., USA). Growth of this tumor cell line is dependent upon the expression of an activated form of the c-Kit tyrosine kinase receptor carrying a N822K mutation (A. Beghini, et al., Exp. Hematol. 33:682-688, 2005). […] FBS was obtained from ATCC and all other reagents were obtained from Invitrogen Corp. (Carlsbad, Calif., USA). Cells that had been cryopreserved in liquid nitrogen were rapidly thawed at 37° C. and transferred to a tissue culture flask containing growth media and then incubated at 37° C. in a 5% CO2 incubator. To expand the cell line, cultures were passaged 1:2 to a density of 5×10 (6) cells/ml every three days by adding an equal volume of fresh growth media. When the flasks reached a density of approximately 10×10 (6) cells/ml, the above passaging process was repeated until sufficient cells had been obtained for implantation into mice.
# Seven to eight week old, female CB17/Icr-Prkdc^scid/Crl (SCID) mice were obtained from Charles River Laboratories (Wilmington, Mass., USA). […]
# Tumors were then permitted to develop in vivo until the majority reached 100-200 mm^3 in tumor volume, which typically required 4-5 weeks following implantation. […] Tumor volumes (V) were calculated by caliper measurement of the width (W), length (L) and thickness (T) of tumors using the following formula: V=0.5236×(L×W×T). Animals were randomized into treatment groups so that the median tumor volumes of each group were similar at the start of dosing. % T/C values, as a measure of efficacy, were determined as follows: • (vi) If ΔT>0: % T/C=(ΔT/ΔC)×100 • (vii) If ΔT<0: % T/C=(ΔT/T0)×100 • (viii) ΔT=Change in median tumor volume between start of dosing and the end of study. • (ix) ΔC=Change in median tumor volume between start of dosing and the end of study. • (x) T0=Median tumor volume at start of dosing. […]
# A375 cells (B-raf V600E) = experiment: Cell survival in A375 melanoma cells (Cell Counting Kit-8); format: cell-based, human; conditions: Homo sapiens, A-375, 72 hours
# Protocol: Human melanoma cell line, A375 (2×10^6 cells), which contains the V600E mutation in the B-raf protein that confers constitutive […] kinase activity, was obtained from American Type Culture Collection. A375 cells (20,000 cells/well) were cultured in 96-well plates and maintained at 37° C. for several hours. The cells were incubated at 37° C. for 72 hours with various concentrations of compound 226, 17AAG or 17DMAG. 17AAG and 17DMAG are Hsp90 inhibitors that are currently in clinical trials and are used here as positive controls for Hsp90 inhibition. Cell survival was measured with Cell Counting Kit-8 (Dojindo Laboratories, Cat # CK04).
# [2] = tested on: NCI-H1975 cells (EGFR T790M and L858R); experiment: Cell survival in NCI-H1975 cells (Cell Counting Kit-8); format: cell-based, human; conditions: Homo sapiens, 72 hours
# Protocol: Human lung cancer cell line NCI-H1975 which harbors both the T790M and the L858R mutations in EGFR was obtained from American Type Culture Collection. NCI-H1975 (10,000 cells/well) were cultured in 96-well plates and maintained at 37° C. for several hours. The cells were incubated at 37° C. for 72 hours with various concentrations of compound 226 of the invention, 17AAG or DMAG. 17AAG and DMAG are Hsp90 inhibitors that are currently in clinical trials and are used here as positive controls for Hsp90 inhibition. Cell survival was measured with Cell Counting Kit-8 (Dojindo Laboratories, Cat # CK04).
# V600E mutant B-raf = experiment: Degradation of B-raf in A375 melanoma cells (Western blot); format: cell-based, human; conditions: 18 hours, at 0.5 mM and 0.1 mM (so in the source)
# Protocol: […] After 18 hours, the cells were lysed with 1× lysis buffer and a western blot was perform, and B-raf was detected with anti-B-raf antibody.
# phosphorylated Bcr-Abl = experiment: Degradation of Bcr-Abl in KU812 cells (Western blot); format: cell-based; conditions: 18 hours
# Protocol: KU812 chronic myeloid leukemia cells (ATCC) (2×10^6 cells), which harbor the Philadelphia chromosome that produces Bcr-Abl tyrosine kinase, were treated (0.1 μM and 1.0 μM) with either Compound 226, 17-AAG or 17-DMAG. After 18 hours, the cells were lysed with 1× lysis buffer, and a western blot was perform using anti-BCR-ABL antibody to detect phosphorylated Bcr-Abl.
smiles,measurement,setting,value
"CC(C)c1cc(-c2nnc(O)n2-c2ccc3c(ccn3C)c2)c(O)cc1O [Compound 226, 3-(2,4-di-hydroxy-5-isopropyl-phenyl)-4-(1-methyl-indol-5-yl)-5-hydroxy-[1,2,4] triazole]",average bodyweight gain relative to the start of the study,"[1]; 25 mg/kg i.v. 5 times per week, day 50",+0.7% (+/−2.0 SEM)
same,% T/C value,"[1]; 25 mg/kg i.v. 5 times per week, 14 doses, day 50",−15.3%
same,% T/C value,"[1]; single dose of 25 mg/kg on day 30, observed day 33 (3 days after the first dose)",−4.1%
same,IC50,A375 cells (B-raf V600E),4 nM
same,IC50,[2],16 nM
same,degradation of V600E mutant B-raf,V600E mutant B-raf,induced degradation
same,degradation of phosphorylated Bcr-Abl,phosphorylated Bcr-Abl; 0.1 μM,complete degradation
same,degradation of phosphorylated Bcr-Abl,phosphorylated Bcr-Abl; 1.0 μM,complete degradation
